Data as given in US20260263426A1, “DIAMIDINE ANALOGS FOR ANTI-INFLAMMATORY USE” (MONTDOREX INC., priority 2023, published 2026).

Assays:
endo-exonuclease = experiment: inhibition of endo-exonuclease activity, in-vitro; format: biochemical; details: read-out: EE IC50
Source text: The inhibition of endo-exonuclease has been measured using pentamidine and a pentamidine analog where the center site of pentamidine (the carbon backbone) has been altered. Endo-exonuclease inhibition has been tested in-vitro.

[1] = tested on: non-alcoholic fatty liver disease; details: mice; Zhao E et al (2017) Hepatology 66:922-935; cited from earlier work
HCT-116 = HCT-116 IC50 (Table 1); format: cell-based; details: Homo sapiens

IC50 (endo-exonuclease) [µM]	IC50 (HCT-116) [µM]	SMILES	body weight [1]	food intake [1]	hepatic triglycerides [1]	serum ALT [1]
53.1	107	Cl.Cl.N=C(N)c1ccc(OCCCCCOc2ccc(C(=N)N)cc2)cc1 [Pentamidine HCl]	reduces	reduces	reduces	reduces
23.2	6.2	N=C(N)c1ccc(OCCCCCCCCCCOc2ccc(C(=N)N)cc2)cc1 [Decamidine-isethionate]				
